Reference: the supplement of paper PMC4862054

Columns and labels:
Assay in all cases: normalised viability (% of control), CellTiter-Blue; higher = more viable cells (about 100 = DMSO control)
Conditions in all cases: incubation time: 72 h
MDA-MB-453 = tested on: MDA-MB-453
Method: (§1)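 DSRT, CellTiter-Blue viability, 72 h incubation. Signal is normalised to DMSO and benzethonium chloride controls. Value is the normalised response at dose 3.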

MDA-MB-231 [1] = tested on: MDA-MB-231
Method: as §1

CAL-85-1 [2] = tested on: CAL-85-1
Method: as §1

MFM-223 = tested on: MFM-223
Method: as §1

MDA-MB-436 = tested on: MDA-MB-436
Method: as §1

HDQ-P1 = tested on: HDQ-P1
Method: as §1

HCC1599 = tested on: HCC1599
Method: as §1

CAL-120 [3] = tested on: CAL-120
Method: as §1

SK-BR-3 [4] = tested on: SK-BR-3
Method: as §1

BT-549 [5] = tested on: BT-549
Method: as §1

HCC1143 [6] = tested on: HCC1143
Method: as §1

CAL-51 = tested on: CAL-51
Method: as §1

DU-4475 [7] = tested on: DU-4475
Method: as §1

Hs578T [8] = tested on: Hs578T
Method: as §1

MDA-MB-468 [9] = tested on: MDA-MB-468
Method: as §1

CAL-148 [10] = tested on: CAL-148
Method: as §1

BT-474 [11] = tested on: BT-474
Method: as §1

HCC1937 = tested on: HCC1937
Method: as §1

MDA-MB-231 [12] = tested on: MDA-MB-231; remark: listed apart in the source
Summary of the method: (§2)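 Compound dissolved in 5 µl medium was pre-loaded into 384-well plates, and breast cancer cell lines in 20 µl suspension were seeded on top and incubated 72 h. After adding 2.5 µl CellTiter-Blue reagent for 2 h at 37 °C, fluorescence was read at 560/590 nm. Plates were normalised to vehicle (100) and a positive kill control (0), with Z'-factor quality control. Each value is normalised viability at a single listed concentration from the series.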

CAL-85-1 [13] = tested on: CAL-85-1; remark: listed apart in the source
Summary of the method: as §2

CAL-120 [14] = tested on: CAL-120; remark: listed apart in the source
Summary of the method: as §2

SK-BR-3 [15] = tested on: SK-BR-3; remark: listed apart in the source
Summary of the method: as §2

BT-549 [16] = tested on: BT-549; remark: listed apart in the source
Summary of the method: as §2

HCC1143 [17] = tested on: HCC1143; remark: listed apart in the source
Summary of the method: as §2

DU-4475 [18] = tested on: DU-4475; remark: listed apart in the source
Summary of the method: as §2

Hs578T [19] = tested on: Hs578T; remark: listed apart in the source
Summary of the method: as §2

MDA-MB-468 [20] = tested on: MDA-MB-468; remark: listed apart in the source
Summary of the method: as §2

CAL-148 [21] = tested on: CAL-148; remark: listed apart in the source
Summary of the method: as §2

BT-474 [22] = tested on: BT-474; remark: listed apart in the source
Summary of the method: as §2

CC(O)(CS(=O)(=O)c1ccc(F)cc1)C(=O)Nc1ccc(C#N)c(C(F)(F)F)c1 (centres undefined) [Bicalutamide]
Conditions	normalised viability [%]
BT-474 [11], 100 nM	115
BT-474 [22], 10 nM	119
BT-474 [22], 1000 nM	109
BT-474 [22], 10000 nM	138
BT-549 [5], 100 nM	84.5
BT-549 [16], 10 nM	87
BT-549 [16], 1000 nM	94.3
BT-549 [16], 10000 nM	87.2
CAL-51, 10 nM	105
CAL-85-1 [2], 10 nM	110
CAL-85-1 [13], 3 nM	93.7
CAL-85-1 [13], 30 nM	97.3
CAL-85-1 [13], 100 nM	104
CAL-120 [3], 100 nM	97.2
CAL-120 [14], 10 nM	96
CAL-120 [14], 1000 nM	107
CAL-120 [14], 10000 nM	119
CAL-148 [10], 10 nM	109
CAL-148 [21], 3 nM	101
CAL-148 [21], 30 nM	100
CAL-148 [21], 100 nM	102
DU-4475 [7], 10 nM	103
DU-4475 [18], 3 nM	92.2
DU-4475 [18], 30 nM	88.8
DU-4475 [18], 100 nM	99.1
HCC1143 [6], 100 nM	99.8
HCC1143 [17], 10 nM	94.8
HCC1143 [17], 1000 nM	105
HCC1143 [17], 10000 nM	92.7
HCC1599, 100 nM	83.7
HCC1937, 100 nM	83
HDQ-P1, 10 nM	121
Hs578T [8], 100 nM	93.6
Hs578T [19], 10 nM	108
Hs578T [19], 1000 nM	112
Hs578T [19], 10000 nM	113
MDA-MB-231 [1], 100 nM	105
MDA-MB-231 [12], 10 nM	103
MDA-MB-231 [12], 1000 nM	122
MDA-MB-231 [12], 10000 nM	122
MDA-MB-436, 100 nM	98.7
MDA-MB-453, 10 nM	101
MDA-MB-468 [9], 100 nM	94.6
MDA-MB-468 [20], 10 nM	118
MDA-MB-468 [20], 1000 nM	93.9
MDA-MB-468 [20], 10000 nM	91.3
MFM-223, 100 nM	87
SK-BR-3 [4], 100 nM	94.1
SK-BR-3 [15], 10 nM	104
SK-BR-3 [15], 1000 nM	107
SK-BR-3 [15], 10000 nM	114

CCNC(=O)CCC/C=C\C[C@@H]1[C@@H](/C=C/[C@@H](O)CCc2ccccc2)[C@H](O)C[C@@H]1O [Bimatoprost]
Conditions	normalised viability [%]
BT-474 [11], 55 nM	126
BT-474 [22], 5.5 nM	112
BT-474 [22], 550 nM	106
BT-474 [22], 5500 nM	127
BT-549 [5], 55 nM	98.7
BT-549 [16], 5.5 nM	102
BT-549 [16], 550 nM	109
BT-549 [16], 5500 nM	85.5
CAL-51, 5.5 nM	113
CAL-85-1 [2], 5.5 nM	104
CAL-85-1 [13], 1.65 nM	97.1
CAL-85-1 [13], 16.5 nM	92.5
CAL-85-1 [13], 55 nM	101
CAL-120 [3], 55 nM	95.4
CAL-120 [14], 5.5 nM	95.3
CAL-120 [14], 550 nM	92.4
CAL-120 [14], 5500 nM	94
CAL-148 [10], 5.5 nM	90.1
CAL-148 [21], 1.65 nM	92.6
CAL-148 [21], 16.5 nM	90.9
CAL-148 [21], 55 nM	95.2
DU-4475 [7], 5.5 nM	120
DU-4475 [18], 1.65 nM	112
DU-4475 [18], 16.5 nM	99.4
DU-4475 [18], 55 nM	95.5
HCC1143 [6], 55 nM	100
HCC1143 [17], 5.5 nM	102
HCC1143 [17], 550 nM	104
HCC1143 [17], 5500 nM	94.2
HCC1599, 55 nM	123
HCC1937, 55 nM	102
HDQ-P1, 5.5 nM	99.7
Hs578T [8], 55 nM	80.7
Hs578T [19], 5.5 nM	110
Hs578T [19], 550 nM	116
Hs578T [19], 5500 nM	98.1
MDA-MB-231 [1], 55 nM	96.8
MDA-MB-231 [12], 5.5 nM	100
MDA-MB-231 [12], 550 nM	97.2
MDA-MB-231 [12], 5500 nM	97.6
MDA-MB-436, 55 nM	115
MDA-MB-453, 5.5 nM	105
MDA-MB-468 [9], 55 nM	106
MDA-MB-468 [20], 5.5 nM	97.1
MDA-MB-468 [20], 550 nM	123
MDA-MB-468 [20], 5500 nM	111
MFM-223, 55 nM	108
SK-BR-3 [4], 55 nM	82.1
SK-BR-3 [15], 5.5 nM	98.7
SK-BR-3 [15], 550 nM	110
SK-BR-3 [15], 5500 nM	97

COc1cc(Nc2c(C#N)cnc3cc(OCCCN4CCN(C)CC4)c(OC)cc23)c(Cl)cc1Cl [Bosutinib]
Conditions	normalised viability [%]
BT-474 [11], 100 nM	103
BT-474 [22], 10 nM	113
BT-474 [22], 1000 nM	94.6
BT-474 [22], 10000 nM	6.35
BT-549 [5], 100 nM	113
BT-549 [16], 10 nM	91.9
BT-549 [16], 1000 nM	95.4
BT-549 [16], 10000 nM	6.38
CAL-51, 10 nM	116
CAL-85-1 [2], 10 nM	108
CAL-85-1 [13], 3 nM	92.2
CAL-85-1 [13], 30 nM	111
CAL-85-1 [13], 100 nM	96.8
CAL-120 [3], 100 nM	90.4
CAL-120 [14], 10 nM	87.5
CAL-120 [14], 1000 nM	70.5
CAL-120 [14], 10000 nM	11.1
CAL-148 [10], 10 nM	84.6
CAL-148 [21], 3 nM	77.2
CAL-148 [21], 30 nM	92.3
CAL-148 [21], 100 nM	87.6
DU-4475 [7], 10 nM	109
DU-4475 [18], 3 nM	105
DU-4475 [18], 30 nM	108
DU-4475 [18], 100 nM	86.5
HCC1143 [6], 100 nM	84.3
HCC1143 [17], 10 nM	83.8
HCC1143 [17], 1000 nM	73
HCC1143 [17], 10000 nM	48.9
HCC1599, 100 nM	108
HCC1937, 100 nM	98.2
HDQ-P1, 10 nM	128
Hs578T [8], 100 nM	106
Hs578T [19], 10 nM	120
Hs578T [19], 1000 nM	98.2
Hs578T [19], 10000 nM	27.4
MDA-MB-231 [1], 100 nM	121
MDA-MB-231 [12], 10 nM	98.9
MDA-MB-231 [12], 1000 nM	142
MDA-MB-231 [12], 10000 nM	2.42
MDA-MB-436, 100 nM	130
MDA-MB-453, 10 nM	104
MDA-MB-468 [9], 100 nM	107
MDA-MB-468 [20], 10 nM	104
MDA-MB-468 [20], 1000 nM	95.2
MDA-MB-468 [20], 10000 nM	14.5
MFM-223, 100 nM	90.3
SK-BR-3 [4], 100 nM	74.8
SK-BR-3 [15], 10 nM	99
SK-BR-3 [15], 1000 nM	86.3
SK-BR-3 [15], 10000 nM	1.28

CCN(CC)CCCC(C)Nc1ccnc2cc(Cl)ccc12 (centres undefined) [Chloroquine]
Conditions	normalised viability [%]
BT-474 [11], 9.9 nM	104
BT-474 [22], 0.99 nM	109
BT-474 [22], 99 nM	108
BT-474 [22], 990 nM	111
BT-549 [5], 9.9 nM	104
BT-549 [16], 0.99 nM	88.3
BT-549 [16], 99 nM	95.6
BT-549 [16], 990 nM	108
CAL-51, 0.99 nM	90.3
CAL-85-1 [2], 0.99 nM	94.8
CAL-85-1 [13], 0.297 nM	95.5
CAL-85-1 [13], 2.97 nM	90
CAL-85-1 [13], 9.9 nM	97
CAL-120 [3], 9.9 nM	102
CAL-120 [14], 0.99 nM	96.1
CAL-120 [14], 99 nM	104
CAL-120 [14], 990 nM	105
CAL-148 [10], 0.99 nM	85
CAL-148 [21], 0.297 nM	88.5
CAL-148 [21], 2.97 nM	89.1
CAL-148 [21], 9.9 nM	89.4
DU-4475 [7], 0.99 nM	98.2
DU-4475 [18], 0.297 nM	106
DU-4475 [18], 2.97 nM	89.8
DU-4475 [18], 9.9 nM	112
HCC1143 [6], 9.9 nM	87.7
HCC1143 [17], 0.99 nM	97.8
HCC1143 [17], 99 nM	89.2
HCC1143 [17], 990 nM	93.4
HCC1599, 9.9 nM	128
HCC1937, 9.9 nM	115
HDQ-P1, 0.99 nM	106
Hs578T [8], 9.9 nM	90.2
Hs578T [19], 0.99 nM	92
Hs578T [19], 99 nM	106
Hs578T [19], 990 nM	93.1
MDA-MB-231 [1], 9.9 nM	107
MDA-MB-231 [12], 0.99 nM	113
MDA-MB-231 [12], 99 nM	129
MDA-MB-231 [12], 990 nM	98.7
MDA-MB-436, 9.9 nM	117
MDA-MB-453, 0.99 nM	100
MDA-MB-468 [9], 9.9 nM	105
MDA-MB-468 [20], 0.99 nM	107
MDA-MB-468 [20], 99 nM	115
MDA-MB-468 [20], 990 nM	98.4
MFM-223, 9.9 nM	98.2
SK-BR-3 [4], 9.9 nM	92
SK-BR-3 [15], 0.99 nM	103
SK-BR-3 [15], 99 nM	93.4
SK-BR-3 [15], 990 nM	101
